Results on three molecules are retold here after patent publication US7074773B2, “Pharmaceutical composition for diabetic neuropathy” (priority 2001, dated 2006).

Experiment [1] deals with streptozotocin-induced diabetic mouse. Briefly: Assessment (threshold analysis) of thermal nociceptive response, tail-flick test, using diabetic mouse. In kind it is in vivo, male ICR mice. How it is done:
Test: Assessment (Threshold Analysis) of Thermal Nociceptive Response Using Diabetic Mouse (in vivo)
This test was performed according to the method of Osawa and Kamei [Eur. J. Pharmacol., 372, 221–228 (1999)]. […]
The assessment was performed using a tail-flick test. To be specific, photothermic stimulation was given to the tail of mouse, and the reaction latency until it moves the tail feeling the heat was measured. How the reaction latency changed in the diabetes group as compared to the normal group and the results with administration of 100 mg/kg of CDP-choline to the diabetes group are shown in FIG. 1.
(See the Method of Osawa and Kamei [Eur. J. Pharmacol., 372, 221–228 (1999)])
Streptozotocin (200 mg/kg) dissolved in citrate buffer (pH 4.5) was administered into the tail vein of male ICR mice (12–13 per group, body weight: about 20 g) to induce diabetes. […]
The assessment was performed using a tail-flick test.
Test: Assessment (Threshold Analysis) of Thermal Nociceptive Response Using diabetic Mice (in vivo)
CDP-choline Na was dissolved in distilled water and orally administered at a dose of 100 mg/kg once a day starting from the time point when 8 weeks passed from the administration of streptozotocin. […]

Experiment [2] concerns streptozotocin-induced diabetic mice. Briefly: Charcoal powder transportability test of gastrointestinal tract using diabetic mice. In kind it is in vivo, male ICR mice. To be noted: diabetes group. How it is done: Test: Charcoal Powder Transportability Test of Gastrointestinal Tract Using Diabetic Mice (in vivo)
Streptozotocin (200 mg/kg) dissolved in citrate buffer (pH 4.5) was intraperitoneally administered to male ICR mice (7–11 per group, body weight: about 20 g) to induce diabetes.
CDP-choline Na was dissolved in distilled water and orally administered at a dose of 100 mg/kg. once a day from immediately after induction of diabetes.
The mice that had undergone streptozotocin administration 8 weeks before were used for the test. A 5% activated charcoal powder suspension was prepared using 0.5% aqueous carboxymethylcellulose solution, and orally administered at 0.1 ml/mice to mice fasted from the previous day. After 30 min, the gastrointestinal tract from pyloric portion of stomach to rectum was enucleated and the whole length was measured. In addition, the position of the activated charcoal powder after movement was confirmed and the distance of movement from pyloric portion of stomach was measured. This was converted to numerical values based on the whole length of from pyloric portion of stomach to rectum as 100%, and the data was processed and taken to show charcoal powder transportability of gastrointestinal tract.
How the charcoal powder transportability of gastrointestinal tract changed in the diabetes group as compared to the normal group and the results with administration of 100 mg/kg of CDP-choline to the diabetes group are shown in Table 1. In Table 1, the normal group, diabetes group and diabetes+CDP-choline administration group were divided into three criteria of less than 40%, not less than 40% and less than 60%, and not less than 60% of charcoal powder transportability of gastrointestinal tract, and the number of incidents in each criterion is shown in percentage.

In experiment [3] the test system is diabetic neuropathy patients. To be noted: Phase III controlled clinical trial; cited from earlier work.
Experiment [4] relates to peripheral neuropathy induced by taxol. To be noted: reported in WO 00/11952; cited from earlier work.
Where [5] appears, read: 100 mg/kg oral once a day from induction, 8 weeks after streptozotocin.

Structures can show the parent of a compound that is named as a salt.

On to `C[N+](C)(C)CCOP(=O)(O)OP(=O)([O-])OC[C@H]1O[C@@H](n2ccc(N)nc2=O)[C@H](O)[C@@H]1O` [CDP-choline, cytidine 5′-diphosphocholine monosodium salt], for which the “reaction latency prolongation-inhibitory effect” value in experiment [1] (100 mg/kg oral from 8 weeks post-streptozotocin, at the lapse of 11 weeks after streptozotocin) is on record as “significant reaction latency prolongation-inhibitory effect was observed”. Besides, in experiment [1] (Example 5, oral once a day from 5 weeks post-streptozotocin, 100 mg/kg, FIG. 3 at 7 weeks, similar at 6 or 8 weeks), the “inhibitory effect on prolongation of reaction latency (diminished sensation of the sensory nerves)” value was “nearly completely inhibited”. In experiment [1] (diabetes group, 30 mg/kg oral, from 5 weeks post-streptozotocin, data not shown), the “effect on prolongation of reaction latency” value is listed as “a similar effect was observed”. In addition, in experiment [1] (diabetes group, 100 mg/kg oral once a day from 5 weeks post-streptozotocin, FIG. 2), the “inhibition of prolongation of reaction latency (diminished sensation)” value is “almost completely inhibited”. For the same molecule, the “inhibition of biphasic neuropathy (reaction latency, tail-flick)” value in experiment [1] (diabetes group, 100 mg/kg oral once a day from immediately after induction of diabetes, FIG. 1) is “almost completely inhibited”. In addition, the “effect on reaction latency (tail-flick)” value in experiment [1] (diabetes group, 300 mg/kg oral, from immediately after induction of diabetes) is “a similar effect was found”. Also, in experiment [1] (normal group, 100 or 300 mg/kg), the “effect on reaction latency (tail-flick) in normal group” value is reported as “no effect on the reaction latency”. Further, the “inhibition of degradation of charcoal powder transportability of gastrointestinal tract” value in experiment [2] (100 mg/kg oral) is given as “complete inhibition”. In experiment [2] (setting [5]), the “incidence of mice with charcoal powder transportability of gastrointestinal tract less than 40%” value was 0%; the “incidence of mice with charcoal powder transportability of gastrointestinal tract not less than 40% and less than 60%” value is listed as 71.4%; the “incidence of mice with charcoal powder transportability of gastrointestinal tract not less than 60%” value is 28.6%.
For the molecule `Cc1cccc(C)c1OCC(C)N` (stereo not shown) [mexiletine hydrochloride], the “spontaneous pain relieving rate” value in experiment [3] is recorded as “not more than 50%”.
Consider `CC(=O)OC[C@H]1O[C@@H](n2ccc(=O)[nH]c2=O)[C@H](OC(C)=O)[C@@H]1OC(C)=O` [triacetyluridine], for which the “efficacy for peripheral neuropathy (diminished sensation) induced by taxol” value in experiment [4] is given as “effective”.
